The subject of experiment [1] is Kuramochi cells labeled with mApple-H2B. The experiment can be described thus: IncuCyte cell proliferation assay. The experiment is classed as cell-based. Particulars: Kuramochi RB-WT, cell count 0 to 72 hours; method calls it GI50. The method, then: IncuCyte® assay was used to measure the effect of disclosed compounds on cell proliferation. Fluorescent microscopy images of cells were taken immediately after compound treatment and 72 hours later. Image analysis software was used to obtain cell counts as a function of compound concentration. Kuramochi cells labeled with mApple-H2B were seeded on 384-well assay-ready plates. Plates were placed in an IncuCyte® (Sartorius) and scanned at 0 and 72 hours. IncuCyte® software was used to count the number of fluorescent nuclei in each well. The fold change in cell count from 0 to 72 hours in wells treated with increasing compounds concentrations (10 pts, 1/2 log dilution, 20 μM top concentration) was normalized to DMSO control wells. The normalized cell counts were fit with dose response curves and a GI50 was calculated.

A further experiment addresses CDK2/Cyclin E1 (Homo sapiens (Human), UniProt P24941). The experiment can be described thus: Caliper LabChip EZ Reader mobility shift assay. The class given is biochemical. The conditions noted are these: 2.5 nM CDK2/Cyclin E1 (14-475), 100 μM ATP, 1.5 μM fluorescent peptide; read-out: Caliper Assay (CDK2/CCNE1): IC50. On the procedure: Inhibition of CDK2/Cyclin E1 activity in the presence of compounds of the present disclosure was evaluated using a Caliper LabChip® EZ Reader mobility shift assay. In the assay, activated CDK2/Cyclin E1 catalyzes the phosphorylation of a fluorescently tagged peptide 5-FAM-QSPKKG-CONH2 (PerkinElmer, FL Peptide 18) which induces a difference in capillary electrophoresis mobility. The peptide substrate and product were measured, and the conversion ratio was used to determine the inhibition (as % activity and IC50 values) of CDK2/Cyclin E1. Reactions contained 50 mM HEPES pH 7.5, 10 mM MgCl2, 1 mM EDTA, 2 mM DTT, 0.01% Brij35, 0.5 mg/mL BSA, 0.1% DMSO, 2.5 nM CDK2/Cyclin E1 (14-475), 100 μM ATP, and 1.5 μM fluorescent peptide substrate.
Dose titrations of inhibitors in 100% DMSO were combined with 3.25 nM CDK2/Cyclin E1 (14-475) and 130 μM of ATP in reaction buffer. The mixtures were incubated for 30 minutes before the addition of fluorescent peptide substrate to initiate the kinase reaction. The final conditions were 2.5 nM CDK2/Cyclin E1 (14-475), 100 μM ATP, and 1.5 μM fluorescent peptide. The reactions were stopped after 100 minutes with the addition of EDTA (6 mM final EDTA concentration). The stopped reactions were analyzed on a Caliper LabChip® EZ Reader II. The conversion ratios were normalized to yield % activity, plotted against compound concentration, and fit to a four-parameter equation to determine the IC50 for each compound.

Bounds are passed on as bounds.

In the case of `COC[C@H]1CCCN(C(=O)C(NC(=O)[C@@H]2CN(c3nc(C(F)(F)F)cs3)CC23CN(C(=O)[C@H]2CC2(C)C)C3)[C@@H](C)OCC23CCC(CC2)OC3)C1` (stereo in doubt) [Compound I-17, (S)-N-((2S,3R)-3-(2-oxabicyclo[2.2.2]octan-4-ylmethoxy)-1-((S)-3-(methoxymethyl)piperidin-1-yl)-1-oxobutan-2-yl)-2-((S)-2,2-dimethylcyclopropanecarbonyl)-6-(4-(trifluoromethyl)thiazol-2-yl)-2,6-diazaspiro[3.4]octane-8-carboxamide], the IC50 is above 20 µM in experiment [1] and above 10 µM on CDK2/Cyclin E1. The matching figures for `CC(C)(O)C(NC(=O)[C@@H]1CN(C(=O)c2cncs2)CC12CN(c1ncco1)C2)c1cccc(C2CCOCC2)n1` (stereo partly drawn) [Compound I-5, (8S)—N-(2-hydroxy-2-methyl-1-(6-(tetrahydro-2H-pyran-4-yl) 239yridine-2-yl)propyl)-2-(oxazol-2-yl)-6-(thiazole-5-carbonyl)-2,6-diazaspiro[3.4]octane-8-carboxamide]: above 20 µM and above 10 µM. Turning to `C[C@@H](OCC1CCC(F)(F)CC1)[C@H](NC(=O)[C@@H]1CN(C(=O)c2cncs2)CC12CN(c1cc[nH]n1)C2)C(C)(C)O` [Compound I-6, (S)-N-((3S,4R)-4-((4,4-difluorocyclohexyl)methoxy)-2-hydroxy-2-methylpentan-3-yl)-2-(1H-pyrazol-3-yl)-6-(thiazole-5-carbonyl)-2,6-diazaspiro[3.4]octane-8-carboxamide], the IC50 in experiment [1] was above 20 µM; on CDK2/Cyclin E1 it was above 10 µM. As for `C[C@@H](OCC1CCCCC1)[C@H](NC(=O)[C@@H]1CN(c2cccc3[nH]ncc23)CC12CN(C(=O)[C@H]1CC1(C)C)C2)C(=O)N1CCCCC1` [Compound I-13, (S)-N-((2S,3R)-3-(cyclohexylmethoxy)-1-oxo-1-(piperidin-1-yl)butan-2-yl)-2-((S)-2,2-dimethylcyclopropanecarbonyl)-6-(1H-indazol-4-yl)-2,6-diazaspiro[3.4]octane-8-carboxamide], the IC50 in experiment [1] lay within 5 to 20 µM; at CDK2/Cyclin E1, 1 to 10 µM.

Consider `C[C@@H](OCC1CCCCC1)[C@H](NC(=O)[C@@H]1CN(c2nccc3ncsc23)CC12CN(C(=O)[C@H]1CC1(C)C)C2)C(=O)N1CCCCC1` [Compound I-15, (S)-N-((2S,3R)-3-(cyclohexylmethoxy)-1-oxo-1-(piperidin-1-yl)butan-2-yl)-2-((S)-2,2-dimethylcyclopropanecarbonyl)-6-(thiazolo[5,4-c]pyridin-4-yl)-2,6-diazaspiro[3.4]octane-8-carboxamide], for which the IC50 in experiment [1] lay within 5 to 20 µM; at CDK2/Cyclin E1, 0.1 to 1 µM. With `C[C@@H](OCC12CCC(CC1)OC2)C(NC(=O)[C@@H]1CN(c2cccc3ncsc23)CC12CN(C(=O)[C@H]1CC1(C)C)C2)C(C)(C)O` (stereo partly drawn) [Compound I-16, (S)-N-((3S,4R)-4-((2-oxabicyclo[2.2.2]octan-4-yl)methoxy)-2-hydroxy-2-methylpentan-3-yl)-6-(benzo[d]thiazol-7-yl)-2-((S)-2,2-dimethylcyclopropane-1-carbonyl)-2,6-diazaspiro[3.4]octane-8-carboxamide], the IC50 at CDK2/Cyclin E1 was above 10 µM. Regarding `C[C@@H](OCC12CCC(CC1)OC2)[C@H](NC(=O)[C@@H]1CN(c2nccc3ncsc23)CC12CN(C(=O)[C@H]1CC1(C)C)C2)C(=O)N1CCC2(CC1)COC2` [Compound I-19, (S)-N-((2S,3R)-3-(2-oxabicyclo[2.2.2]octan-4-ylmethoxy)-1-oxo-1-(2-oxa-7-azaspiro[3.5]nonan-7-yl)butan-2-yl)-2-((S)-2,2-dimethylcyclopropanecarbonyl)-6-(thiazolo[5,4-c]pyridin-4-yl)-2,6-diazaspiro[3.4]octane-8-carboxamide], the IC50 in experiment [1] is above 20 µM; on CDK2/Cyclin E1, 1 to 10 µM. For `COC[C@H]1CCCN(C(=O)[C@@H](NC(=O)[C@@H]2CN(c3cc(O)cc4ncsc34)CC23CN(C(=O)[C@H]2CC2(C)C)C3)[C@@H](C)OCC23CCC(CC2)OC3)C1` [Compound I-20, (S)-N-((2S,3R)-3-(2-oxabicyclo[2.2.2]octan-4-ylmethoxy)-1-((S)-3-(methoxymethyl)piperidin-1-yl)-1-oxobutan-2-yl)-2-((S)-2,2-dimethylcyclopropanecarbonyl)-6-(5-hydroxybenzo[d]thiazol-7-yl)-2,6-diazaspiro[3.4]octane-8-carboxamide] the same measures were 5 to 20 µM and 0.1 to 1 µM.

Take `COC[C@H]1CCCN(C(=O)[C@@H](NC(=O)[C@@H]2CN(c3cc(C(F)(F)F)cc4ncsc34)CC23CN(C(=O)[C@H]2CC2(C)C)C3)[C@@H](C)OCC23CCC(CC2)OC3)C1` [Compound I-21, (S)-N-((2S,3R)-3-(2-oxabicyclo[2.2.2]octan-4-ylmethoxy)-1-((S)-3-(methoxymethyl)piperidin-1-yl)-1-oxobutan-2-yl)-2-((S)-2,2-dimethylcyclopropanecarbonyl)-6-(5-(trifluoromethyl)benzo[d]thiazol-7-yl)-2,6-diazaspiro[3.4]octane-8-carboxamide]: the IC50 in experiment [1] was 5 to 20 µM; at CDK2/Cyclin E1 it was above 10 µM. The matching figures for `C[C@@H](OCC12CCC(CC1)OC2)[C@H](NC(=O)[C@@H]1CN(c2cccc3ncsc23)CC12CN(C(=O)[C@H]1CC1(C)C)C2)C(=O)N(C)C` [Compound I-22, (S)-N-((2S,3R)-3-(2-oxabicyclo[2.2.2]octan-4-ylmethoxy)-1-(dimethylamino)-1-oxobutan-2-yl)-6-(benzo[d]thiazol-7-yl)-2-((S)-2,2-dimethylcyclopropanecarbonyl)-2,6-diazaspiro[3.4]octane-8-carboxamide]: above 20 µM and 1 to 10 µM.

Consider `C[C@@H](OCC12CCC(CC1)OC2)[C@H](NC(=O)[C@@H]1CN(c2nccc3ncsc23)CC12CN(C(=O)[C@H]1CC1(C)C)C2)C(=O)N(C)C` [Compound I-23, (S)-N-((2S,3R)-3-(2-oxabicyclo[2.2.2]octan-4-ylmethoxy)-1-(dimethylamino)-1-oxobutan-2-yl)-2-((S)-2,2-dimethylcyclopropanecarbonyl)-6-(thiazolo[5,4-c]pyridin-4-yl)-2,6-diazaspiro[3.4]octane-8-carboxamide], for which the figures for the IC50 (in experiment [1]; on CDK2/Cyclin E1) were above 20 µM and 1 to 10 µM, respectively. Regarding `COC[C@H]1CCCN(C(=O)[C@@H](NC(=O)[C@@H]2CN(c3n[nH]c4ncccc34)CC23CN(C(=O)[C@H]2CC2(C)C)C3)[C@@H](C)OCC23CCC(CC2)OC3)C1` [Compound I-24, (S)-N-((2S,3R)-3-(2-oxabicyclo[2.2.2]octan-4-ylmethoxy)-1-((S)-3-(methoxymethyl)piperidin-1-yl)-1-oxobutan-2-yl)-2-((S)-2,2-dimethylcyclopropanecarbonyl)-6-(1H-pyrazolo[3,4-b]pyridin-3-yl)-2,6-diazaspiro[3.4]octane-8-carboxamide], the IC50 on CDK2/Cyclin E1 was above 10 µM.

Turning to `CC(OCC12CCC(CC1)OC2)[C@H](NC(=O)[C@@H]1CN(c2ncnc3ncsc23)CC12CN(C(=O)[C@H]1CC1(C)C)C2)C(=O)N1CC2(CCOCC2)C1` (stereo partly drawn) [Compound I-25, (S)-N-((2S,3R)-3-((2-oxabicyclo[2.2.2]octan-4-yl)methoxy)-1-oxo-1-(7-oxa-2-azaspiro[3.5]nonan-2-yl)butan-2-yl)-2-((S)-2,2-dimethylcyclopropane-1-carbonyl)-6-(thiazolo[4,5-d]pyrimidin-7-yl)-2,6-diazaspiro[3.4]octane-8-carboxamide], the values for the IC50 (in experiment [1]; on CDK2/Cyclin E1) were above 20 µM and 0.1 to 1 µM, respectively. As to `C[C@@H](OCC12CCC(CC1)OC2)[C@H](NC(=O)[C@@H]1CN(c2ncnc3ncsc23)CC12CN(C(=O)[C@H]1CC1(C)C)C2)C(=O)N1CCC(OC(F)(F)F)CC1` [Compound I-29, (S)-N-((2S,3R)-3-((2-oxabicyclo[2.2.2]octan-4-yl)methoxy)-1-oxo-1-(4-(trifluoromethoxy)piperidin-1-yl)butan-2-yl)-2-((S)-2,2-dimethylcyclopropane-1-carbonyl)-6-(thiazolo[4,5-d]pyrimidin-7-yl)-2,6-diazaspiro[3.4]octane-8-carboxamide], the IC50 was in the range of 5 to 20 µM in experiment [1] and 0.01 to 0.1 µM at CDK2/Cyclin E1.

Consider `C[C@@H](OCC12CCC(CC1)OC2)[C@H](NC(=O)[C@@H]1CN(C(=O)c2cncs2)CC12CN(c1cc[nH]n1)C2)C(C)(C)O` [Compound I-31, (S)-N-((3S,4R)-4-(2-oxabicyclo[2.2.2]octan-4-ylmethoxy)-2-hydroxy-2-methylpentan-3-yl)-2-(1H-pyrazol-3-yl)-6-(thiazole-5-carbonyl)-2,6-diazaspiro[3.4]octane-8-carboxamide], for which the IC50 at CDK2/Cyclin E1 was above 10 µM.
